This note sets out measurements from ChEMBL document CHEMBL1201862, “PubChem BioAssay data set” (2004).

Among the test systems are HCT-116; M14; NCI-H23; HL-60; OVCAR-5; SK-MEL-2; OVCAR-4; HT-29; COLO 205; TK-10; U-251; HCC 2998; Hs-578T; HOP-62; UACC-257; MOLT-4; SR; SF-539; CAKI-1; PC-3.
Common to all, as to test: NCI anticancer screen, dose series, 48 h

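Five concentrations, 48 hours, 96-well plates. Here, GI50 denotes the concentration required for 50% inhibition of growth.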 Calls of active or inactive are those of the source. No stated cut-off is given here; in the data, active = GI50 up to about 1.1 µM and inactive = higher. Some results are limits rather than exact numbers.

`Cc1c2cc[n+](C)cc2c(C)c2c1[nH]c1ccc(Cl)cc12`: the GI50 in the assay with HCT-116 is 0.881 µM (active); with M14, 5.57 µM (inactive); in the assay with NCI-H23, 0.843 µM (active); in the assay with HL-60 it was 1.94 µM (inactive); with OVCAR-5, 8.32 µM (inactive); in the assay with SK-MEL-2, 2.25 µM (inactive). Moreover, the GI50 in the assay on OVCAR-4 is 3.28 µM (inactive); with HT-29 it was 3.34 µM (inactive); with COLO 205, 0.494 µM (active); with TK-10, 6.95 µM (inactive); in the assay on U-251, 0.25 µM (active); with HCC 2998, 1.63 µM (inactive). The GI50 with Hs-578T is 0.295 µM (active); with HOP-62, 0.631 µM (active); in the assay with UACC-257 it was 8.38 µM (inactive); in the assay on MOLT-4 it was 2.31 µM (inactive); in the assay on SR, 5.32 µM (inactive); with SF-539 it was 0.401 µM (active). Further, the GI50 with CAKI-1 was 1.85 µM (inactive); in the assay with PC-3, 0.918 µM (active).
For `CC1(C)OC[C@@H](O)[C@H](Br)CO1`, the GI50 in the assay with HCT-116, in the assay on M14, in the assay with NCI-H23, with HL-60, with OVCAR-5 and with SK-MEL-2 was > 100 µM (inactive) each time. Further, the GI50 in the assay on OVCAR-4, in the assay with HT-29, with COLO 205, in the assay on TK-10, in the assay with U-251 and in the assay with HCC 2998 was > 100 µM (inactive) each time. Also, the GI50 in the assay with Hs-578T is 68.2 µM (inactive); in the assay with HOP-62, > 100 µM (inactive); with UACC-257, > 100 µM (inactive); with MOLT-4, 65.8 µM (inactive); with SR it was > 100 µM (inactive); with SF-539, > 100 µM (inactive). For the same molecule, the GI50 with CAKI-1 and with PC-3 was > 100 µM (inactive) throughout.
For the molecule `O=C(O)C1CC2C3CCC2C1C3=O` (stereo not given), the GI50 with HCT-116, in the assay with M14, in the assay on NCI-H23, with HL-60, in the assay with OVCAR-5 and in the assay with SK-MEL-2 was > 100 µM (inactive) in each case. For the same molecule, the GI50 in the assay on OVCAR-4, in the assay on HT-29, with COLO 205, in the assay with TK-10, with U-251 and with HCC 2998 was > 100 µM (inactive) each time. Also, the GI50 with Hs-578T, with HOP-62, with UACC-257, with MOLT-4, in the assay with SR and in the assay on SF-539 was > 100 µM (inactive) in each case. The GI50 in the assay with CAKI-1 and in the assay with PC-3 was > 100 µM (inactive) throughout.
For the molecule `Cc1ccc2c(c1)CC1(C2)Cc2ccc(C)cc2C1=O` (stereo not given), the GI50 with HCT-116 was 21.2 µM (inactive); in the assay on M14, 20.2 µM (inactive); in the assay with NCI-H23, 36.5 µM (inactive); in the assay on HL-60, 19 µM (inactive); in the assay with OVCAR-5 it was 43.9 µM (inactive); with SK-MEL-2, 19.9 µM (inactive). The GI50 in the assay on OVCAR-4 is 46.5 µM (inactive); with HT-29 it was 18.7 µM (inactive); in the assay on COLO 205, 15.4 µM (inactive); in the assay with TK-10, 31.2 µM (inactive); in the assay with U-251, 37 µM (inactive); with HCC 2998, 25.9 µM (inactive). Also, the GI50 in the assay on Hs-578T is 20.7 µM (inactive); with HOP-62 it was 28 µM (inactive); in the assay with UACC-257, 18.9 µM (inactive); with MOLT-4, 14.9 µM (inactive); in the assay on SR it was 12.6 µM (inactive); in the assay with SF-539, 26.2 µM (inactive). In addition, the GI50 was 18.5 µM (inactive) with CAKI-1 and 27.9 µM (inactive) in the assay with PC-3.
Consider `CC[C@@H]1CN(C)[C@H]2Cc3c([nH]c4ccccc34)C(=O)C[C@H]1C2C(=O)OC` (stereo not given in full), for which the GI50 in the assay with HCT-116 was > 100 µM (inactive); in the assay on M14 it was > 100 µM (inactive); in the assay with NCI-H23, > 100 µM (inactive); in the assay on HL-60, > 89.3 µM (inactive); with OVCAR-5, > 100 µM (inactive); in the assay on SK-MEL-2, > 100 µM (inactive). Further, the GI50 in the assay with OVCAR-4 is > 31.6 µM (inactive); in the assay with HT-29, > 100 µM (inactive); in the assay with COLO 205, > 100 µM (inactive); with TK-10, > 58.9 µM (inactive); with U-251 it was > 100 µM (inactive); in the assay on HCC 2998 it was > 100 µM (inactive). Further, the GI50 is > 100 µM (inactive) in the assay on Hs-578T; > 72.8 µM (inactive) in the assay on HOP-62; > 100 µM (inactive) in the assay with UACC-257; > 93.8 µM (inactive) in the assay on MOLT-4; > 100 µM (inactive) with SR; > 100 µM (inactive) in the assay on SF-539. The GI50 with CAKI-1 and in the assay on PC-3 was > 100 µM (inactive) in each case.
In the case of `CCCC(=O)O[C@H]1C=C2C[C@@]34SS[C@]5(CC6=C[C@H](OC(C)=O)[C@@H]7O[C@@H]7[C@H]6N5C3=O)C(=O)N4[C@@H]2[C@H]2O[C@H]21`, the GI50 was 0.00847 µM (active) in the assay with HCT-116; 0.0129 µM (active) with M14; 0.0241 µM (active) in the assay on NCI-H23; 0.0644 µM (active) in the assay on HL-60; 0.0112 µM (active) in the assay with OVCAR-5; 0.0552 µM (active) with SK-MEL-2. For the same molecule, the GI50 in the assay on OVCAR-4 was 0.0197 µM (active); in the assay with HT-29 it was 0.00569 µM (active); with COLO 205 it was 0.0137 µM (active); in the assay on TK-10, 0.0347 µM (active); in the assay with U-251 it was 0.00822 µM (active); in the assay on HCC 2998, 0.00923 µM (active). Besides, the GI50 in the assay on Hs-578T is 0.0203 µM (active); in the assay with HOP-62, 0.01 µM (active); in the assay on UACC-257 it was 0.0181 µM (active); with MOLT-4, 0.00904 µM (active); in the assay with SR, < 0.005 µM (active); with SF-539, 0.0194 µM (active). In addition, the GI50 in the assay on CAKI-1 was 0.0175 µM (active); in the assay on PC-3, 0.0199 µM (active).
As for `c1ccc(-c2ccc(-c3cc4ccccc4[nH]3)cc2)cc1`, the GI50 in the assay with HCT-116 is > 100 µM (inactive); in the assay on M14, > 100 µM (inactive); in the assay on NCI-H23, > 100 µM (inactive); in the assay on HL-60 it was 27.8 µM (inactive); in the assay with OVCAR-5 it was > 100 µM (inactive); with SK-MEL-2 it was > 100 µM (inactive). The GI50 in the assay on OVCAR-4, in the assay with HT-29, with COLO 205, in the assay with TK-10, in the assay with U-251 and with HCC 2998 was > 100 µM (inactive) in each case. The GI50 in the assay on Hs-578T, with HOP-62, with UACC-257, in the assay on MOLT-4, with SR and in the assay with SF-539 was > 100 µM (inactive) each time. Further, the GI50 in the assay on CAKI-1 was 61.7 µM (inactive); with PC-3, > 100 µM (inactive).
